Numbered stars: 1 amine (or outer) side, 2 acyl side, 3 side chain; on linkers, the order of the positions; unused ones are H or OH. Square brackets hold non-standard residues; d marks the D form. Peptide text beside a SMILES is read from it. * marks the point of attachment. NMeL = CN[C@@H](CC(C)C)C(=O)O; d(β3hA) = C[C@@H](N)CC(=O)O; dNle = CCCC[C@@H](N)C(=O)O; PhAc = O=C(Cc1ccccc1)*; Boc = CC(C)(C)OC(=O)*; Aib = CC(C)(N)C(=O)O; CO = O=C([*:1])[*:2]; NHPh = c1ccc(N*)cc1; OBn = c1ccc(CO*)cc1; Ahx = NCCCCCC(=O)O; Dha = C=C(N)C(=O)O; NHtBu = CC(C)(C)N*; GABA = NCCCC(=O)O; βAla = NCCC(=O)O
target: T1, endothelin receptor (membrane of smooth muscle tissue of porcine aorta) (Sus scrofa, UniProt Q29010); assay: Endothelin binding inhibition test (125I-endothelin-1, porcine aorta smooth muscle membrane); details: 1.1 μM test compound (no mark); read-out: 125I-endothelin-1 binding inhibition
T1 construct: from tissue; host or cells: porcine aorta smooth muscle, membrane fraction
T1 sequence (Q29010 21-427): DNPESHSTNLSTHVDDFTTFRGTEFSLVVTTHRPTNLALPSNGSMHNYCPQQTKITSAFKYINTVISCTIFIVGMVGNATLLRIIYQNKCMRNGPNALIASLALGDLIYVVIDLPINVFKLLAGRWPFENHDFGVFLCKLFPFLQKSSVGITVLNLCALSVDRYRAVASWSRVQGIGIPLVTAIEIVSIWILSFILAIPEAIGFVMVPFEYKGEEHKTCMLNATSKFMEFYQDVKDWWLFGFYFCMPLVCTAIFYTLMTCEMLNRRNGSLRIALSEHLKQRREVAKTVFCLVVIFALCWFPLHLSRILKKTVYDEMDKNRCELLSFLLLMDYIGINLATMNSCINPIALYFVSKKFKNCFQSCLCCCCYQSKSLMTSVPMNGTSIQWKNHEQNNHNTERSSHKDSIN
Procedure: The smooth muscle tissue of porcine aorta was homogenized in a buffer solution of 10 mM MOPS, pH 7.4, at 4° C. by a polytron. To the homogenate, sucrose was added to a concentration of 20%, and the mixture was centrifuged at 1,000×g for 15 minutes, and the supernatant was further centrifuged at 10,000×g for 15 minutes. The supernatant thereof was further centrifuged at 90,000×g for 40 minutes. The membrane precipitate thereby obtained was suspended in a buffer solution of 5 mM HEPES/Tris, pH 7.4, at a concentration of 25 mg/ml.
Then, 16 μl of this membrane suspension was added to 340 μl of 50 mM Tris/HCl buffer, pH 7.4, containing 10 μM calcium chloride, 10 μM magnesium chloride, 0.1 mM PMSF, 1 μM pepstatin A, 2 μM leupeptin, 1 mM 1,10-phenanthroline and 0.1% bovine serum albumin. To this suspension, 4 μl of (A) endothelin-1 (for nonspecific binding; 0.2 μM as the final concentration), (B) buffer solution A (for total control binding), or (C) a test compound (1.1 μM or 10 μM as the final concentration),was added. Further, to each suspension, 40 μl of ^125 I-endothelin-1 (12000-18000 cpm) was added. These mixtures were incubated at 25° C. for 4 hours, then subjected to filtration on a glass filter GF/C and then washed with 5 mM HEPES/Tris, pH 7.4, containing 0.3% bovine serum albumin. Then, the radioactivity trapped by the glass filter was measured, and the ^125 I-endothelin-1 binding inhibition D (%) at 1.1 μM or 10 μM of the test compound was determined by the following equation. [formula] Each test was performed in triplicate.
The test compounds are indicated by Compound Nos.

Row | SMILES | inhibition at 1.1 µM
1 | COC(=O)C(C(=O)N[C@@H](CC(C)C)C(=O)N[C@H](Cc1c[nH]c2ccccc12)C(=O)NCCC(=O)O)=C1SC=CS1 [Compound 66] | 77%
2 | CC(C)C[C@H](NC(=O)OC(C)(C)C)C(=O)N[C@H](Cc1c[nH]c2ccccc12)C(=O)NCCC(=O)O [Compound 29] (Boc-Leu-[dW]-[βAla]-OH) | 69%
3 | CC(C)C[C@H](NC(=O)N1CCCCCC1)C(=O)N[C@H](Cc1c[nH]c2ccccc12)C(=O)NCCS(=O)(=O)O [Compound 53] | 86%
4 | CC(C)C[C@H](NC(=O)N1CCCCCC1)C(=O)N[C@H](Cc1c[nH]c2ccccc12)C(=O)NCCC(N)=O [Compound 135] | 39%
5 | CC(C)C[C@H](NC(=O)OC(C)(C)C)C(=O)N[C@H](Cc1c[nH]c2ccccc12)C(=O)NC(C)(C)C(=O)O [Compound 13] (Boc-Leu-[dW]-[Aib]-OH) | 39%
6 | CC(C)C[C@H](NC(=O)C1CCCCCC1)C(=O)N[C@H](Cc1c[nH]c2ccccc12)C(=O)N[C@H](Cc1c[nH]c2ccccc12)C(=O)O [Compound 200] | 87%
7 | CC(C)C[C@H](NC(=O)OC(C)(C)C)C(=O)N[C@H](Cc1c[nH]c2ccccc12)C(=O)N[C@H](C)CC(=O)O [Compound 1] (Boc-Leu-[dW]-[d(β3hA)]-OH) | 74%
8 | CC(C)C[C@@H](C(=O)N[C@H](Cc1c[nH]c2ccccc12)C(=O)N[C@H](Cc1c[nH]c2ccccc12)C(=O)O)N1C(=O)CN(C2CCCC2)C1=O [Compound 155] | 70%
9 | CC(C)C[C@H](NC(=O)OC(C)(C)C)C(=O)N[C@H](Cc1c[nH]c2ccccc12)C(=O)NCC(=O)O [Compound 31] (Boc-Leu-[dW]-Gly-OH) | 45%
10 | CC(C)C[C@H](NC(=O)N1CCCCCC1)C(=O)N[C@H](Cc1c[nH]c2ccccc12)C(=O)NCCC(=O)NS(C)(=O)=O [Compound 158] | 57%
11 | CC(C)C[C@H](NC(=O)OC(C)(C)C)C(=O)N[C@H](Cc1c[nH]c2ccccc12)C(=O)N[C@H](CC(C)C)C(=O)O [Compound 3] (Boc-Leu-[dW]-[dL]-OH) | 31%
12 | CC(C)C[C@@H](C(=O)N[C@H](Cc1c[nH]c2ccccc12)C(=O)NCCC(=O)O)N(C)C(=O)OC(C)(C)C [Compound 30] (Boc-[NMeL]-[dW]-[βAla]-OH) | 44%
13 | CC(C)C[C@H](NC(=O)N1CCCCCC1)C(=O)N[C@H](Cc1cn(C=O)c2ccccc12)C(=O)NCCS(=O)(=O)O [Compound 161] | 84%
14 | CC(C)C[C@H](NC(=O)NC(C)(C)C)C(=O)N[C@H](Cc1c[nH]c2ccccc12)C(=O)NCCC(=O)O [Compound 85] ({NHtBu-CO}-Leu-[dW]-[βAla]-OH) | 77%
15 | CC(C)C[C@H](NC(=O)Nc1ccccc1)C(=O)N[C@H](Cc1c[nH]c2ccccc12)C(=O)NCC(=O)O [Compound 90] ({NHPh-CO}-Leu-[dW]-Gly-OH) | 46%
16 | CC(C)C[C@H](NC(=O)Cc1ccccc1)C(=O)N[C@H](Cc1c[nH]c2ccccc12)C(=O)NCCC(=O)O [Compound 70] (PhAc-Leu-[dW]-[βAla]-OH) | 32%
17 | COC(=O)[C@@H](Cc1c[nH]c2ccccc12)NC(=O)[C@@H](Cc1c[nH]c2ccccc12)NC(=O)[C@H](CC(C)C)NC(=O)N1CCCCCC1 [Compound 49] | 85%

Row | SMILES | inhibition at 1.1 µM
18 | CC(C)C[C@H](NC(=O)OC(C)(C)C)C(=O)N[C@H](Cc1c[nH]c2ccccc12)C(=O)N[C@@H](CC(=O)O)C(N)=O [Compound 38] (Boc-Leu-[dW]-Asp-NH2) | 22%
19 | CC(C)C[C@H](NC(=O)NC(C)(C)C)C(=O)N[C@H](Cc1c[nH]c2ccccc12)C(=O)N[C@H](C)CC(=O)O [Compound 80] ({NHtBu-CO}-Leu-[dW]-[d(β3hA)]-OH) | 73%
20 | COC(=O)C[C@@H](C)NC(=O)[C@@H](Cc1c[nH]c2ccccc12)NC(=O)[C@H](CC(C)C)NC(=O)N1CCCCCC1 [Compound 51] | 68%
21 | CC(C)C[C@H](NC(=O)OC(C)(C)C)C(=O)N[C@H](Cc1c[nH]c2ccccc12)C(=O)N[C@H](CC(=O)O)C(N)=O [Compound 36] (Boc-Leu-[dW]-[dD]-NH2) | 65%
22 | CC(C)C[C@H](NC(=O)OC(C)(C)C)C(=O)N[C@H](Cc1c[nH]c2ccccc12)C(=O)NC(CC(=O)O)c1ccccc1 (stereo partly drawn) [Compound 14] | 64%
23 | CC(C)C[C@H](NC(=O)N1CCCCCC1)C(=O)N[C@H](Cc1cn(C=O)c2ccccc12)C(=O)N[C@H](C)CC(=O)O [Compound 132] | 85%
24 | CC(C)C[C@H](NC(=O)OC(C)(C)C)C(=O)N[C@H](Cc1c[nH]c2ccccc12)C(=O)N[C@H](Cc1c[nH]cn1)C(=O)O [Compound 4] (Boc-Leu-[dW]-[dH]-OH) | 80%
25 | CCOC(=O)CCNC(=O)[C@@H](Cc1c[nH]c2ccccc12)NC(=O)[C@H](CC(C)C)NC(=O)N1CCCCCC1 [Compound 92] | 40%
26 | CC(C)C[C@H](NC(=O)N(C)C(C)(C)C)C(=O)N[C@H](Cc1cn(C=O)c2ccccc12)C(=O)N[C@H](Cc1c[nH]c2ccccc12)C(=O)O [Compound 174] | 81%
27 | C=C(NC(=O)[C@@H](Cc1c[nH]c2ccccc12)NC(=O)[C@H](CC(C)C)NC(=O)OC(C)(C)C)C(=O)O [Compound 133] (Boc-Leu-[dW]-[Dha]-OH) | 41%
28 | CC(C)C[C@H](NC(=O)OC(C)(C)C)C(=O)N[C@H](Cc1c[nH]c2ccccc12)C(=O)N[C@H](Cc1c[nH]c2ccccc12)C(=O)O [Compound 2] (Boc-Leu-[dW]-[dW]-OH) | 83%
29 | CC(C)C[C@H](NC(=O)N(C(C)C)C(C)C)C(=O)N[C@H](Cc1c[nH]c2ccccc12)C(=O)NCCC(=O)O [Compound 119] | 81%
30 | CC(C)C[C@H](NC(=O)c1cccs1)C(=O)N[C@H](Cc1c[nH]c2ccccc12)C(=O)NCCC(=O)O [Compound 55] | 54%
31 | CC(C)C[C@H](NC(=O)NC(C)(C)C)C(=O)N[C@H](Cc1c[nH]c2ccccc12)C(=O)N[C@H](Cc1c[nH]cn1)C(=O)O [Compound 82] ({NHtBu-CO}-Leu-[dW]-[dH]-OH) | 76%
32 | CCCC[C@@H](NC(=O)[C@@H](Cc1c[nH]c2ccccc12)NC(=O)[C@H](CC(C)C)NC(=O)OC(C)(C)C)C(=O)O [Compound 11] (Boc-Leu-[dW]-[dNle]-OH) | 41%
33 | CC(C)C[C@H](NC(=O)OC(C)(C)C)C(=O)N[C@H](Cc1c[nH]c2ccccc12)C(=O)NCCCC(=O)O [Compound 5] (Boc-Leu-[dW]-[GABA]-OH) | 33%
34 | CC(C)C[C@H](NC(=O)N1CCCCCC1)C(=O)N[C@H](Cc1c[nH]c2ccccc12)C(=O)NN1CCC[C@@H]1C(=O)O [Compound 163] | 76%

same assay, conditions: 10 μM test compound (marked *); read-out: 125I-endothelin-1 binding inhibition

Row | SMILES | inhibition at 10 µM
35 | CC(C)C[C@H](NC(=O)OC(C)(C)C)C(=O)N[C@H](Cc1c[nH]c2ccccc12)C(=O)N[C@@H](CC(=O)OCc1ccccc1)C(N)=O [Compound 37] (Boc-Leu-[dW]-Asp(OBn)-NH2) | 29%
36 | CC(C)C[C@H](NC(=O)CC(C)(C)C)C(=O)N[C@H](Cc1c[nH]c2ccccc12)C(=O)NCCC(=O)O [Compound 68] | 58%
37 | CC(C)C[C@H](NC(=O)N(C)C)C(=O)N[C@H](Cc1c[nH]c2ccccc12)C(=O)NCCC(=O)O [Compound 73] ({NMe2-CO}-Leu-[dW]-[βAla]-OH) | 61%
38 | CC(C)C[C@H](NC(=O)OC(C)(C)C)C(=O)N[C@H](Cc1c[nH]c2ccccc12)C(=O)NCCCCCC(=O)O [Compound 6] (Boc-Leu-[dW]-[Ahx]-OH) | 37%
39 | CC(C)C[C@H](NC(=O)OC(C)(C)C)C(=O)N[C@H](Cc1c[nH]c2ccccc12)C(=O)N[C@@H](CC(=O)O)C(=O)Nc1ccccc1 [Compound 45] (Boc-Leu-[dW]-Asp-NHPh) | 39%
40 | CC(C)C[C@H](NC(=O)OC(C)(C)C)C(=O)N[C@H](Cc1c[nH]c2ccccc12)C(=O)NN(CC(=O)O)CC(=O)O [Compound 147] | 57%

same assay, conditions: read-out: 125I-endothelin-1 binding inhibition

Row | SMILES | inhibition at 1.1 µM
41 | CC(C)C[C@H](NC(=O)N1CCCCCC1)C(=O)N[C@H](Cc1c[nH]c2ccccc12)C(=O)NCCC(=O)NS(=O)(=O)c1ccccc1 [Compound 157] | 69%
42 | CC(C)C[C@H](OC(=O)C1CCCCCC1)C(=O)N[C@H](Cc1c[nH]c2ccccc12)C(=O)N[C@H](Cc1c[nH]c2ccccc12)C(=O)O [Compound 201] | 69%
